Data reported in patent publication US12552783B2, “Modulators of proteolysis and associated methods of use” (Arvinas Operations, Inc., priority 2018, dated 2026).

Target: KRas (Homo sapiens, UniProt P01116, G12C)
Test: KRas degradation in NCI-H2030 cells by Western blot, normalized to GAPDH (data of Table 14)
Assay type: cell-based
Design: host or cells: NCI-H2030
Details: for Dmax: NCI-H2030
Summary of the method: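 Cells serum-starved 24 h, then treated at 0.3, 1 and 3 μM in 0.1% DMSO, 24 h for VHL-based compounds and 72 h for others. Lysates (10 μg protein) immunoblotted; KRas normalized to GAPDH, degradation visually estimated below 25% or quantified versus DMSO lane, giving DC50 and DMax.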

SMILES	Percent Degradation at Indicated Concentration (μM) (H2030, 3 μM)	Percent Degradation at Indicated Concentration (μM) (H2030, 0.3 μM)	Percent Degradation at Indicated Concentration (μM) (H2030, 1 μM)	Dmax [%]	further results
C=CC(=O)N1CCN(c2nc(NCCC(=O)N(C)CCOCCOCCOCCOCC(=O)N[C@H](C(=O)N3C[C@H](O)C[C@H]3C(=O)N[C@@H](C)c3ccc(-c4scnc4C)cc3)C(C)(C)C)nc3c(F)c(-c4c(O)cccc4F)c(Cl)cc23)CC1 (atropisomer, axis not shown) [compound 211, (2S,4R)-1-((S)-21-(((S)-4-(4-acryloylpiperazin-1-yl)-6-chloro-8-fluoro-7-(2-fluoro-6-hydroxyphenyl)quinazolin-2-yl)amino)-2-(tert-butyl)-18-methyl-4,19-dioxo-6,9,12,15-tetraoxa-3,18-diazahenicosanoyl)-4-hydroxy-N-((S)-1-(4-(4-methylthiazol-5-yl)phenyl)ethyl)pyrrolidine-2-carboxamide]	C (Percent Degradation: C ≤ 35)	–	–	–	–
CN(CCOCCOc1ccc2c(c1)CN(C1CCC(=O)NC1=O)C2=O)C(=O)CCNc1nc(N2CCN(C(N)=O)CC2)c2cc(Cl)c(-c3cc(O)cc4ccccc34)c(F)c2n1 (stereo not drawn) [compound 37, 4-(6-chloro-2-((3-((2-(2-((2-(2,6-dioxopiperidin-3-yl)-1-oxoisoindolin-5-yl)oxy)ethoxy)ethyl)(methyl)amino)-3-oxopropyl)amino)-8-fluoro-7-(3-hydroxynaphthalen-1-yl)quinazolin-4-yl)piperazine-1-carboxamide]	C (Percent Degradation: C ≤ 35)	C (Percent Degradation: C ≤ 35)	C (Percent Degradation: C ≤ 35)	≤ 35	–
C=CC(=O)N1CCN(c2nc(NCCC(=O)N(C)CCOCC(=O)N[C@H](C(=O)N3C[C@H](O)C[C@H]3C(=O)N[C@@H](C)c3ccc(-c4scnc4C)cc3)C(C)(C)C)nc3c(F)c(-c4cc(O)cc5ccccc45)c(Cl)cc23)CC1 [compound 191, (2S,4R)-1-((2S)-2-(2-(2-(3-((4-(4-acryloylpiperazin-1-yl)-6-chloro-8-fluoro-7-(3-hydroxynaphthalen-1-yl)quinazolin-2-yl)amino)-N-methylpropanamido)ethoxy)acetamido)-3,3-dimethylbutanoyl)-4-hydroxy-N-((S)-1-(4-(4-methylthiazol-5-yl)phenyl)ethyl)pyrrolidine-2-carboxamide]	–	–	–	–	Percent Degradation at Indicated Concentration (μM): 0.1 (H2030 cells, 0.1 μM): C (C ≤ 35); Percent Degradation at Indicated Concentration (μM): 0.3 (H2030 cells, 0.3 μM): C (C ≤ 35); Percent Degradation at Indicated Concentration (μM): 1 (H2030 cells, 1 μM): C (C ≤ 35); Dmax (H2030 cells): ≤ 35%
C=CC(=O)N1CCN(c2nc(NCCC(=O)N(C)CCOCCOc3cc(-c4scnc4C)ccc3CNC(=O)[C@@H]3C[C@@H](O)CN3C(=O)[C@@H](c3cc(C)no3)C(C)C)nc3c(F)c(-c4cc(O)cc5ccccc45)c(Cl)cc23)CC1 [compound 339]	–	–	–	–	Percent Degradation at Indicated Concentration (μM): 0.3 (H2030 cells, 0.3 μM): C (C ≤ 35); Percent Degradation at Indicated Concentration (μM): 1 (H2030 cells, 1 μM): C (C ≤ 35); Percent Degradation at Indicated Concentration (μM): 3 (H2030 cells, 3 μM): C (C ≤ 35); Dmax (H2030 cells): ≤ 35%
Cc1ncsc1-c1ccc([C@H](C)NC(=O)[C@@H]2C[C@@H](O)CN2C(=O)[C@@H](NC(=O)COCCOCCN(C)C(=O)CCNc2nc(N3CCN(C(=O)C(O)O)CC3)c3cc(Cl)c(-c4c(O)cccc4F)c(F)c3n2)C(C)(C)C)cc1 (atropisomer, axis not shown) [compound 237, (2S,4R)-1-((S)-2-(tert-butyl)-15-(((R)-6-chloro-4-(4-(2,2-dihydroxyacetyl)piperazin-1-yl)-8-fluoro-7-(2-fluoro-6-hydroxyphenyl)quinazolin-2-yl)amino)-12-methyl-4,13-dioxo-6,9-dioxa-3,12-diazapentadecanoyl)-4-hydroxy-N-((S)-1-(4-(4-methylthiazol-5-yl)phenyl)ethyl)pyrrolidine-2-carboxamide]	C (Percent Degradation: C ≤ 35)	C (Percent Degradation: C ≤ 35)	C (Percent Degradation: C ≤ 35)	≤ 35	–
C=CC(=O)N1CCN(c2nc(NCCC(=O)N(C)CCOc3cc(-c4scnc4C)ccc3CNC(=O)[C@@H]3C[C@@H](O)CN3C(=O)[C@@H](c3cc(C)no3)C(C)C)nc3c(F)c(-c4cc(O)cc5ccccc45)c(Cl)cc23)CC1 [compound 337]	C (Percent Degradation: C ≤ 35)	C (Percent Degradation: C ≤ 35)	C (Percent Degradation: C ≤ 35)	≤ 35	–
C=CC(=O)N1CCN(c2nc(NCCC(=O)N(C)CCOCCOCCOCCOc3ccc4c(c3)CN(C3CCC(=O)NC3=O)C4=O)nc3c(F)c(-c4c(O)cccc4F)c(Cl)cc23)CC1 [compound 93, 3-((4-(4-acryloylpiperazin-1-yl)-6-chloro-8-fluoro-7-((S)-2-fluoro-6-hydroxyphenyl)quinazolin-2-yl)amino)-N-(2-(2-(2-(2-((2-(2,6-dioxopiperidin-3-yl)-1-oxoisoindolin-5-yl)oxy)ethoxy)ethoxy)ethoxy)ethyl)-N-methylpropanamide]	C (Percent Degradation: C ≤ 35)	C (Percent Degradation: C ≤ 35)	C (Percent Degradation: C ≤ 35)	≤ 35	–
CN[C@@H](C)C(=O)N[C@H](C(=O)N1CCC[C@H]1c1nc(-c2ccc(OCCOCCOCCOCCOCCN(C)C(=O)CCNc3nc(N4CCN(C(C)=O)CC4)c4cc(Cl)c(-c5cc(O)cc6ccccc56)c(F)c4n3)c3ccccc23)cs1)C1CCCCC1 [compound 269, 3-((4-(4-acetylpiperazin-1-yl)-6-chloro-8-fluoro-7-(3-hydroxynaphthalen-1-yl)quinazolin-2-yl)amino)-N-(14-((4-(2-((S)-1-((S)-2-cyclohexyl-2-((S)-2-(methylamino)propan-amido)acetyl)pyrrolidin-2-yl)thiazol-4-yl)naphthalen-1-yl)oxy)-3,6,9,12-tetraoxatetradecyl)-N-methylpropanamide]	C (Percent Degradation: C ≤ 35)	C (Percent Degradation: C ≤ 35)	C (Percent Degradation: C ≤ 35)	≤ 35	–
C=CC(=O)N1CCN(c2nc(NCCC(=O)N(C)CCOCCNc3cccc4c3C(=O)N(C3CCC(=O)NC3=O)C4=O)nc3c(F)c(-c4c(O)cccc4F)c(Cl)cc23)CC1 [compound 109, 3-(((S)-4-(4-acryloylpiperazin-1-yl)-6-chloro-8-fluoro-7-(2-fluoro-6-hydroxyphenyl)quinazolin-2-yl)amino)-N-(2-(2-((2-(2,6-dioxopiperidin-3-yl)-1,3-dioxoisoindolin-4-yl)amino)ethoxy)ethyl)-N-methylpropanamide]	C (Percent Degradation: C ≤ 35)	C (Percent Degradation: C ≤ 35)	C (Percent Degradation: C ≤ 35)	≤ 35	–
CN(CCOCCOc1ccc2c(c1)C(=O)N(C1CCC(=O)NC1=O)C2=O)C(=O)CCNc1nc(N2CCN(C(=O)C(O)O)CC2)c2cc(Cl)c(-c3c(O)cccc3F)c(F)c2n1 [compound 149, 3-(((S)-6-chloro-4-(4-(2,2-dihydroxyacetyl)piperazin-1-yl)-8-fluoro-7-(2-fluoro-6-hydroxyphenyl)quinazolin-2-yl)amino)-N-(2-(2-((2-(2,6-dioxopiperidin-3-yl)-1,3-dioxoisoindolin-5-yl)oxy)ethoxy)ethyl)-N-methylpropanamide]	–	–	–	–	Percent Degradation at Indicated Concentration (μM) (H2030 cells, 3 μM): C (Percent Degradation: C ≤ 35)
CN(CCOCCOCCOc1ccc2c(c1)C(=O)N(C1CCC(=O)NC1=O)C2=O)C(=O)CCNc1nc(N2CCN(C(=O)C(O)O)CC2)c2cc(Cl)c(-c3c(O)cccc3F)c(F)c2n1 [compound 152, 3-(((R)-6-chloro-4-(4-(2,2-dihydroxyacetyl)piperazin-1-yl)-8-fluoro-7-(2-fluoro-6-hydroxyphenyl)quinazolin-2-yl)amino)-N-(2-(2-(2-((2-(2,6-dioxopiperidin-3-yl)-1,3-dioxoisoindolin-5-yl)oxy)ethoxy)ethoxy)ethyl)-N-methylpropanamide]	–	–	–	–	Percent Degradation at Indicated Concentration (μM) (H2030 cells, 0.3 μM): C (Percent Degradation: C ≤ 35); Percent Degradation at Indicated Concentration (μM) (H2030 cells, 1 μM): C (Percent Degradation: C ≤ 35); Percent Degradation at Indicated Concentration (μM) (H2030 cells, 3 μM): C (Percent Degradation: C ≤ 35)
C=CC(=O)N1CCN(c2nc(NCCC(=O)N(C)CCOCCOCCOCCOCCOc3ccc4c(c3)CN(C3CCC(=O)NC3=O)C4=O)nc3c(F)c(-c4c(O)cccc4F)c(Cl)cc23)CC1 [compound 95, 3-(((S)-4-(4-acryloylpiperazin-1-yl)-6-chloro-8-fluoro-7-(2-fluoro-6-hydroxyphenyl)quinazolin-2-yl)amino)-N-(14-((2-(2,6-dioxopiperidin-3-yl)-1-oxoisoindolin-5-yl)oxy)-3,6,9,12-tetraoxatetradecyl)-N-methylpropanamide]	C (Percent Degradation: C ≤ 35)	C (Percent Degradation: C ≤ 35)	C (Percent Degradation: C ≤ 35)	≤ 35	–
O=C1CCC(N2C(=O)c3ccc(OCCOCCOCCOCC/C=C/C(=O)N4CCN(c5ncnc6c(F)c(-c7cc(O)cc8ccccc78)c(Cl)cc56)CC4)cc3C2=O)C(=O)N1 (stereo not drawn) [compound 170, (E)-5-(2-(2-(2-((5-(4-(6-chloro-8-fluoro-7-(3-hydroxynaphthalen-1-yl)quinazolin-4-yl)piperazin-1-yl)-5-oxopent-3-en-1-yl)oxy)ethoxy)ethoxy)ethoxy)-2-(2,6-dioxopiperidin-3-yl)isoindoline-1,3-dione]	C (Percent Degradation: C ≤ 35)	C (Percent Degradation: C ≤ 35)	C (Percent Degradation: C ≤ 35)	≤ 35	–
